ChEMBL document CHEMBL1201862, “PubChem BioAssay data set” (2004)
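All cell lines were grown in 96-well plates and treated with compound for 48 hours. The concentration for 50% growth inhibition is given as GI50.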 Active and inactive are the calls of the source. Cut-off read from the data, not from the text of the source: active = GI50 up to about 1.1 µM and inactive = higher.

How the values were obtained:
Assay in all cases: growth of human tumour cells (NCI), 48 h
DLD-1 = tested on: DLD-1
DMS-273 = tested on: DMS-273
XF498 = tested on: XF498
LXFL 529 = tested on: LXFL 529
HOP-18 = tested on: HOP-18
BT-549 = tested on: BT-549
DMS-114 = tested on: DMS-114
RXF 631 = tested on: RXF 631
SNB-78 = tested on: SNB-78

N#Cc1c(-c2ccccc2)c(-c2ccccc2)cc2c(=O)c3ccc(Cl)cc3[nH]c12
GI50 (DLD-1): > 100 µM (inactive) | GI50 (DMS-273): > 100 µM (inactive) | GI50 (XF498): > 100 µM (inactive) | GI50 (LXFL 529): > 100 µM (inactive) | GI50 (HOP-18): > 100 µM (inactive)

COc1cccc(/C=C/C2=NN(c3cccc(S(=O)(=O)O)c3)C3(C2)SCC(=O)N3c2nc3ccccc3s2)c1 (centres undefined)
GI50 (BT-549): 53 µM (inactive)

CCCCCCN1CCc2c(C)c(C#N)c3nc4ccccc4n3c21
GI50 (BT-549): 65.3 µM (inactive)

Cc1cc(O)nc(CNC(=O)c2ccc3ccccc3c2)n1
GI50 (DLD-1): > 100 µM (inactive) | GI50 (DMS-273): > 100 µM (inactive) | GI50 (XF498): > 100 µM (inactive) | GI50 (DMS-114): > 100 µM (inactive) | GI50 (LXFL 529): > 100 µM (inactive) | GI50 (HOP-18): > 100 µM (inactive) | GI50 (RXF 631): > 100 µM (inactive)

CC1CCC2C(C)C3C(CC4C5CC=C6CC(OC7OC(CO)C(O)C(OC8OC(CO)C(O)C(O)C8O)C7OC7OC(C)C(O)C(O)C7O)CCC6(C)C5CCC43C)N2C1 (centres undefined)
GI50 (BT-549): 16.5 µM (inactive)

CCOC(=O)C(NC(=O)c1ccccc1)(N1CCN(c2cc3c(cc2F)c(=O)c(C(=O)O)cn3C2CC2)CC1)C(F)(F)F (centres undefined)
GI50 (BT-549): 21.8 µM (inactive)

CC(NC(=O)C1(N)CCCC1)C(=O)O (centres undefined)
GI50 (BT-549): > 100 µM (inactive)

Cc1ccc(/N=N/C(C(=O)c2ccccc2)C(=O)c2ccccc2)cc1
GI50 (DLD-1): 21.9 µM (inactive) | GI50 (DMS-273): 19.2 µM (inactive) | GI50 (XF498): 20.1 µM (inactive) | GI50 (DMS-114): 20.1 µM (inactive) | GI50 (LXFL 529): 14.5 µM (inactive) | GI50 (RXF 631): 35.8 µM (inactive)

CN1C=Cc2nccc3cc4c(c1c23)OCO4
GI50 (BT-549): 1.87 µM (inactive)

Cc1cn([C@@H]2O[C@H](CO)[C@@H](O)[C@@H]2O)c(=O)[nH]c1=O
GI50 (BT-549): > 1000 µM (inactive)

CC(CSc1nc2c(c(=N)n1-c1ccccc1)c(=S)n(-c1ccccc1)c(=S)n2-c1ccccc1)CN(C)C (centres undefined)
GI50 (BT-549): 1.78 µM (inactive)

Nc1ncnc2c1ccn2C/C=C/CO
GI50 (BT-549): > 100 µM (inactive)

COC1=C(C)C(=O)c2c(c(COC(N)=O)c3n2CC(OC(C)=O)C3OC(C)=O)C1=O (centres undefined)
GI50 (BT-549): 0.296 µM (active)

CN1C(=O)[C@H](c2c[nH]c3ccccc23)[C@H](c2c[nH]c3ccccc23)C1=O
GI50 (BT-549): 19.1 µM (inactive)

C[n+]1c2ccccc2n2c3ccccc3c(NCCCN3CCOCC3)c(C#N)c21
GI50 (BT-549): 12 µM (inactive)

Cc1c(C(=O)c2ccccc2)[n+]([O-])c2cc(Cl)c(Cl)cc2[n+]1[O-]
GI50 (BT-549): 16.9 µM (inactive)

Nc1ccc2nc(Nc3ccc(F)cc3)cnc2c1
GI50 (DLD-1): > 100 µM (inactive) | GI50 (DMS-273): > 100 µM (inactive) | GI50 (XF498): > 100 µM (inactive) | GI50 (DMS-114): 34.4 µM (inactive)

COCCOC(=O)NCn1cc(-c2ccccc2)nn1
GI50 (BT-549): > 100 µM (inactive)

O=[N+]([O-])c1cc2oc(CSc3ccccc3)nc2cc1Cl
GI50 (BT-549): 23.4 µM (inactive)

CC[C@@H](/C=C\CCC(=O)C[C@H](O)CCC=C(C)C)O[Si](C(C)C)(C(C)C)C(C)C
GI50 (BT-549): > 100 µM (inactive)

O=C1CC[C@H](NC(=O)Cc2ccccc2)C(=O)N1 [ANTINEOPLASTON A10]
GI50 (DLD-1): > 1250 µM (inactive) | GI50 (DMS-273): > 1250 µM (inactive) | GI50 (XF498): > 1250 µM (inactive) | GI50 (LXFL 529): > 1250 µM (inactive) | GI50 (HOP-18): > 1250 µM (inactive)

Cc1c(N/C=C(\C#N)C(=O)c2ccc(Cl)cc2)c(=O)n(-c2ccccc2)n1C
GI50 (BT-549): 46.6 µM (inactive)

Cc1ccc(OCC2OC(n3cnc4c(Cl)nc(N)nc43)CC2Oc2ccc(C)cc2)cc1 (centres undefined)
GI50 (BT-549): 43.3 µM (inactive)

N#Cc1ccc(Cc2ccccn2)cc1Cl
GI50 (SNB-78): > 100 µM (inactive) | GI50 (DLD-1): > 100 µM (inactive) | GI50 (DMS-273): > 100 µM (inactive) | GI50 (DMS-114): > 100 µM (inactive) | GI50 (LXFL 529): > 100 µM (inactive) | GI50 (HOP-18): > 100 µM (inactive) | GI50 (RXF 631): > 100 µM (inactive)

CC1=C(O)C(=O)C[C@]2(C)[C@H]3CC=C4[C@@H]5CC(C)(C)CC[C@@H]5C(=O)[C@H](O)[C@@]4(C)[C@]3(C)CC[C@@H]12
GI50 (BT-549): > 50 µM (inactive)

CN(c1ccccc1Cl)S(=O)(=O)c1ccccc1
GI50 (BT-549): 56.2 µM (inactive)

Cc1cc(=O)oc2cc(OS(C)(=O)=O)ccc12
GI50 (BT-549): > 100 µM (inactive)

O=[As](O)(O)c1ccc(/N=N/c2ccc(O)cc2)cc1
GI50 (BT-549): > 100 µM (inactive)

Cn1c2ccccc2c2c(-c3ccccc3)[n+]3ccccc3nc21
GI50 (BT-549): 23 µM (inactive)

CC(C)(C)OC(=O)NCCCC(=O)NC1(c2cc3ccccc3s2)CCCCC1
GI50 (BT-549): 15.1 µM (inactive)

NC(=O)/N=C1/CCC2C3CCCC2C13
GI50 (SNB-78): > 100 µM (inactive) | GI50 (DLD-1): > 100 µM (inactive) | GI50 (DMS-273): > 100 µM (inactive) | GI50 (XF498): > 100 µM (inactive) | GI50 (DMS-114): > 100 µM (inactive) | GI50 (LXFL 529): > 100 µM (inactive) | GI50 (HOP-18): > 100 µM (inactive)

COC(=O)c1ccc(C=C(C#N)C#N)cc1
GI50 (DLD-1): 22.2 µM (inactive) | GI50 (DMS-273): 17.4 µM (inactive) | GI50 (DMS-114): 19.2 µM (inactive) | GI50 (LXFL 529): 18.3 µM (inactive) | GI50 (HOP-18): 36.1 µM (inactive) | GI50 (RXF 631): 28.2 µM (inactive)

O=C1c2ccccc2C2(c3ccc(Cl)cc3)N[C@@H]3CCCC[C@@H]3N12 (some centres undefined)
GI50 (BT-549): > 100 µM (inactive)

CCOc1ccc2c(C)cc(=O)oc2c1
GI50 (BT-549): > 100 µM (inactive)

COc1ccc(C(=C(C#N)C#N)c2ccc(OC)cc2)cc1
GI50 (SNB-78): > 100 µM (inactive) | GI50 (DMS-273): > 100 µM (inactive) | GI50 (DMS-114): 77.1 µM (inactive) | GI50 (LXFL 529): > 100 µM (inactive)

NC(=O)CC1OC(=O)Cc2cc3c(c(O)c21)C(=O)c1c(O)cccc1C3=O (centres undefined)
GI50 (BT-549): > 100 µM (inactive)

COc1ccc(/C=C2\C(=O)Nc3ccccc32)cc1OC
GI50 (SNB-78): 37.7 µM (inactive) | GI50 (DMS-273): 64.7 µM (inactive) | GI50 (XF498): > 100 µM (inactive) | GI50 (LXFL 529): 58.1 µM (inactive) | GI50 (HOP-18): > 100 µM (inactive)

COc1cc(Cl)c(CC(=O)c2c[nH]c3ccccc23)cc1OC
GI50 (BT-549): 28.2 µM (inactive)
